PMC4077696 (PLoS Biology, 2014)
Structures can show the parent of a compound that is named as a salt.

Experiments:
beta-secretase (BACE-1) = beta-secretase (BACE-1) (Homo sapiens, UniProt P56817); test: Off-target activity against human aspartyl protease BACE-1; format: biochemical
[1] = tested on: P. falciparum NF54 expressing PMVHA-glmS; test: Dose-response growth assay of parasites expressing PMVHA-glmS or PMVHA-M9 with or without GlcN; format: cell-based, Plasmodium falciparum
Method: Parasites expressing PMVHA-glmS were next assessed for toxicity to 916.
(§1) In the case of dose-response curves, medium was kept for the entire experiment; in the case of curves in Figure 4B,C, medium was replaced with inhibitor-free medium at 48 h postinfection. Parasitaemia was always determined at 72 h by flow cytometry. To knock down PMV, GlcN (Sigma) was added to trophozoites and drug curves initiated by adding compound at subsequent rings (24 h) for 24–72 h.

[2] = biological target: T1, PMV in P. falciparum expressing PMVHA-glmS (Plasmodium falciparum, UniProt Q8I6Z5); test: PEXEL processing of PfEMP3-GFP in PMVHA-glmS parasites with PMV knockdown, immunoblot; format: cell-based; conditions: 20 µM 916, 5 h
T1 construct: incorporated in frame at the 3′ of the PMV locus by homologous recombination; expressed in transfected cells; host or cells: P. falciparum NF54 with pPMVHA-glmS integrated at the PMV locus, also transfected with PfEMP3-GFP
Method: As 916 inhibited PMV in parasites (for example, by 13-fold, Figure 3G), the additive effect of PMV knockdown plus 916 treatment was investigated. Parasites expressing PMVHA-glmS were transfected with a construct encoding PfEMP3-GFP, and PEXEL processing was assessed by immunoblot.
Trophozoites (30–34 h) expressing PfEMP3-GFP, KAHRP-GFP, or SERA5s-GFP were magnet-purified (Miltenyi Biotech), incubated with inhibitors in 400 µl total volume at 37°C for 1–5 h, treated with 0.09% saponin containing inhibitor, and washed pellets were solubilized in Laemmli's buffer, boiled for 3 min, and frozen at −20°C. Proteins were separated by SDS-PAGE, transferred to nitrocellulose and blocked in 10% skim milk/PBS-T, and probed with rat α-HA (Roche 3F10; 1∶1,000), mouse α-GFP (Roche; 1∶1,000), rabbit α-Aldolase (1∶1,000), rabbit α-HSP70 (1∶4,000), rabbit α-PfPMV (1∶1,000), or rabbit α-Hyp8 (1∶500) primary antibodies followed by horseradish peroxidase-conjugated secondary antibodies (Silenius) and detected by enhanced chemiluminescence (Amersham).

[3] = tested on: P. falciparum overexpressing PvPMVHA; test: Dose-response growth assay of parasites overexpressing PvPMVHA; format: cell-based, Plasmodium falciparum
Method: We next investigated the possible effects of PMV overexpression on parasite sensitivity to 916. […] To control for the carriage of episomes and selection on WR99210, sensitivity to 916 was compared between parasites overexpressing a similar construct on episomes on WR99210 selection (encoding miniVarHA; see Figure 1F).
as §1

PvPMV = PvPMV (Plasmodium vivax, UniProt A5K302); test: PEXEL cleavage assay with immunopurified PvPMVHA and fluorogenic KAHRP PEXEL peptide; format: biochemical
PvPMV, sequence (A5K302 35-536): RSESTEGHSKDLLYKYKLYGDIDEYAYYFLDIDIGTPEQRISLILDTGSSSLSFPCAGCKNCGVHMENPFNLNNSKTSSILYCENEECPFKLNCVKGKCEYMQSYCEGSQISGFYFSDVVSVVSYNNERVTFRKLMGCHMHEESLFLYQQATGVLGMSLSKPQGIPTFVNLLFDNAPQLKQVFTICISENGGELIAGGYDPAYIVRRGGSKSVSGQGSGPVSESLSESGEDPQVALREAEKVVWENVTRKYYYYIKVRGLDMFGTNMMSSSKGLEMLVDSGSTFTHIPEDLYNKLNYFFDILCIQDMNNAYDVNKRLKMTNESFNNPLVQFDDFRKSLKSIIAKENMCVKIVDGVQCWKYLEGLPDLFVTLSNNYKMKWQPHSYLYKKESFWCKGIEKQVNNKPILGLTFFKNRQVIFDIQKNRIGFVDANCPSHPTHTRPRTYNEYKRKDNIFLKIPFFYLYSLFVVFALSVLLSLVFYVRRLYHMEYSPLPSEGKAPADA
Method: To investigate PvPMVHA activity, we affinity purified it, as well as the PfPMVHA control, using anti-HA agarose, as previously described [13],[18].
PMV-agarose was prepared by adding α-HA-agarose (Sapphire Bioscience) to parasite lysates, prepared by sonication in 1% Triton X-100/PBS, for 1 h before extensive washing in same [12],[13]. […] Samples were excited at 340 nm and fluorescence emission measured at 492 nm using an Envision fluorescence plate reader (Perkin-Elmer) heated to 37°C for 150 min. Samples were shaken between measurements.

beta-secretase (BACE-1), sequence (P56817 46-501): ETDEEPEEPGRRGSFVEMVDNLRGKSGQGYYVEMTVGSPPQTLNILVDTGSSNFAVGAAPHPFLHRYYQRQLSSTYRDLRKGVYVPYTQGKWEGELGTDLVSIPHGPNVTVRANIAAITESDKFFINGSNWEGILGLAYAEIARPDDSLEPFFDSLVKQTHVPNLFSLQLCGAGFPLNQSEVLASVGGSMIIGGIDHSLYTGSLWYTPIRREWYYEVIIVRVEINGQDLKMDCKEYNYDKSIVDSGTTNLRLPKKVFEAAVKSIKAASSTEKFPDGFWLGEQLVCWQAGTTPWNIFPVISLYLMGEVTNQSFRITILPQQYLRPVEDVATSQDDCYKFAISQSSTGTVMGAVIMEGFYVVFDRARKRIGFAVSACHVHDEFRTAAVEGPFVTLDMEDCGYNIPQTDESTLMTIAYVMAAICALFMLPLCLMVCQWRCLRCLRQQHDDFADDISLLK
T1 sequence (Q8I6Z5 whole entry): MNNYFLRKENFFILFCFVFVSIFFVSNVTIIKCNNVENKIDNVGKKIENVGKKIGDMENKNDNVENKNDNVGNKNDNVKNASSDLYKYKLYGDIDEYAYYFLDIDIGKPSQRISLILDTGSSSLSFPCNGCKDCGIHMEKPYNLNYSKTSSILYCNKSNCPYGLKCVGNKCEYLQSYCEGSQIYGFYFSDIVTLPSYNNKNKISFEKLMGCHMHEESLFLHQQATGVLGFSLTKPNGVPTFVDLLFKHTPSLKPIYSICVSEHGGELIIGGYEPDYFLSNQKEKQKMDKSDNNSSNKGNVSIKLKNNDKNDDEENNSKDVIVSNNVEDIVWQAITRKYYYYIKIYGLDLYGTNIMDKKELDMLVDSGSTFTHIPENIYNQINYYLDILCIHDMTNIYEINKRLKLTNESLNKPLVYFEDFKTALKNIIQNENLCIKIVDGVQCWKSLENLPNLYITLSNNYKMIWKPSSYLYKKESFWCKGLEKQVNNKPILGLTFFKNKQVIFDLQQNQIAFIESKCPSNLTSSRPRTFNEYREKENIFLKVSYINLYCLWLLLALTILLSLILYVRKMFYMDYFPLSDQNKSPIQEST

Row | SMILES | IC50 (beta-secretase (BACE-1)) [µM] | Decrease in EC50 in presence of GlcN, PMVHA-M9 control ([1]; PMVHA-M9 (inactive glmS), with versus without GlcN) [fold] | Decrease in EC50 following PMV knockdown ([1]; PMVHA-glmS, 6 mM GlcN versus no GlcN, 72 h) [fold] | Enhancement of PEXEL cleavage impairment following PMV knockdown [2] [%] | Increase in EC50 with PvPMVHA overexpression versus miniVarHA control ([3]; 5 nM WR99210 selection) [fold] | Increase in EC50 with PvPMVHA overexpression versus wild-type 3D7 ([3]; wild-type 3D7 without WR99210 selection) [fold] | Activity against PvPMVHA, in words (PvPMV) | IC50 (PvPMV) [nM]
1 | CC(C)C[C@H](NC(=O)[C@@H](NC(=O)[C@H](CCCNC(=N)N)NS(=O)(=O)Cc1ccccc1)C(C)C)[C@@H](O)CC(=O)NCCc1ccccc1 [compound 916, PhCH2SO2-Arg(NH2)-Val-Sta-NH(CH2)2Ph .TFA] | > 100 | 1.4 | 3.3 | 50 | 1.9 | 1.4 |  | 
2 | CC[C@H](C)[C@H](NC(=O)[C@@H](NC(=O)[C@H](CCCNC(=N)N)NS(=O)(=O)Cc1ccccc1)C(C)C)[C@@H](O)CC(=O)NCCc1ccccc1 [compound 025, PhCH2SO2Arg-Val-AHMHpA-NH(CH2)2Ph . TFA] |  |  |  |  |  |  | weak activity | 1770
